# Where “and” joins values, the source holds several entries; their conditions need not be identical. Equal entries are not always repeated. Toxic doses and inconclusive results are not listed.
# Test system: L1210 leukemia ip in BDF1 mice, survival T/C
# Test: NCI In Vivo Anticancer Drug Screen. Data for tumor model L1210 Leukemia (intraperitoneal) in B6D2F1 (BDF1) mice
# Details: endpoint: mean survival time, higher = longer survival
# Method in brief: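 Value reflects the ratio of survival in compound-treated mice to survival in vehicle-treated controls, with both groups carrying the same transplanted tumor.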
structure (smiles),measurement,setting,value
NC(=O)c1cn(C2OC(CO)C(O)C2O)c2ncnc(N)c12 (centres undefined),T/C,"dose: 0.1 mg/kg/injection, schedule: Q01DX Z (ip), vehicle: carboxymethylcellulose (CMC)",123 % of control
same,T/C,"dose: 0.12 mg/kg/injection, schedule: Q01DX009 (ip), vehicle: saline",118 % of control
same,T/C,"dose: 0.16 mg/kg/injection, schedule: Q01DX009 (ip), vehicle: saline",119 % of control
same,T/C,"dose: 0.16 mg/kg/injection, schedule: Q#A X034 (ip), vehicle: carboxymethylcellulose (CMC)",116 % of control
same,T/C,"dose: 0.19 mg/kg/injection, schedule: Q01DX005 (ip), vehicle: saline",123 % of control
same,T/C,"dose: 0.19 mg/kg/injection, schedule: Q01DX009 (ip), vehicle: saline",121 % of control
same,T/C,"dose: 0.2 mg/kg/injection, schedule: Q01DX Z (ip), vehicle: carboxymethylcellulose (CMC)",121 % of control
same,T/C,"dose: 0.25 mg/kg/injection, schedule: Q01DX001 (sc), vehicle: saline",100 % of control
same,T/C,"dose: 0.32 mg/kg/injection, schedule: Q01DX017 (ip), vehicle: carboxymethylcellulose (CMC)",94 % of control
same,T/C,"dose: 0.32 mg/kg/injection, schedule: Q02DX009 (ip), vehicle: carboxymethylcellulose (CMC)",100 % of control
same,T/C,"dose: 0.32 mg/kg/injection, schedule: Q04DX005 (ip), vehicle: carboxymethylcellulose (CMC)",104 % of control
same,T/C,"dose: 0.32 mg/kg/injection, schedule: Q#A X034 (ip), vehicle: carboxymethylcellulose (CMC)",104 % of control
same,T/C,"dose: 0.37 mg/kg/injection, schedule: Q01DX009 (ip), vehicle: Klucel (hydroxypropylcellulose) (HPC)",107 % of control
same,T/C,"dose: 0.39 mg/kg/injection, schedule: Q01DX009 (ip), vehicle: saline",108 % of control
same,T/C,"dose: 0.5 mg/kg/injection, schedule: Q01DX001 (sc), vehicle: saline",98 % of control
same,T/C,"dose: 0.5 mg/kg/injection, schedule: Q01DX005 (ip), vehicle: saline",157 % of control
same,T/C,"dose: 0.5 mg/kg/injection, schedule: Q01DX010 (oral), vehicle: saline",97 % of control
same,T/C,"dose: 0.5 mg/kg/injection, schedule: Q## X003 (ip), vehicle: saline",114 % of control
same,T/C,"dose: 0.62 mg/kg/injection, schedule: Q01DX001 (ip), vehicle: carboxymethylcellulose (CMC)",94 % of control
same,T/C,"dose: 0.62 mg/kg/injection, schedule: Q01DX017 (ip), vehicle: carboxymethylcellulose (CMC)",105 % of control
same,T/C,"dose: 0.62 mg/kg/injection, schedule: Q02DX009 (ip), vehicle: carboxymethylcellulose (CMC)",101 % of control
same,T/C,"dose: 0.62 mg/kg/injection, schedule: Q04DX005 (ip), vehicle: carboxymethylcellulose (CMC)",113 % of control
same,T/C,"dose: 0.62 mg/kg/injection, schedule: Q08DX003 (ip), vehicle: carboxymethylcellulose (CMC)",105 % of control
same,T/C,"dose: 0.62 mg/kg/injection, schedule: Q#A X034 (ip), vehicle: carboxymethylcellulose (CMC)",101 % of control
same,T/C,"dose: 0.65 mg/kg/injection, schedule: Q01DX001 (ip), vehicle: water",122 % of control
same,T/C,"dose: 0.75 mg/kg/injection, schedule: Q01DX009 (ip), vehicle: saline",112 % of control and 117 % of control
same,T/C,"dose: 0.78 mg/kg/injection, schedule: Q01DX009 (ip), vehicle: saline",108 % of control and 123 % of control
same,T/C,"dose: 0.8 mg/kg/injection, schedule: Q01DX Z (ip), vehicle: water",123 % of control
same,T/C,"dose: 1.0 mg/kg/injection, schedule: Q01DX001 (sc), vehicle: saline",102 % of control and 104 % of control
same,T/C,"dose: 1.0 mg/kg/injection, schedule: Q01DX005 (ip), vehicle: saline",165 % of control
same,T/C,"dose: 1.0 mg/kg/injection, schedule: Q01DX006 (iv), vehicle: saline",111 % of control
same,T/C,"dose: 1.0 mg/kg/injection, schedule: Q01DX010 (oral), vehicle: saline",103 % of control
same,T/C,"dose: 1.0 mg/kg/injection, schedule: Q01DX Z (im), vehicle: saline",109 % of control
same,T/C,"dose: 1.0 mg/kg/injection, schedule: Q01DX Z (ip), vehicle: carboxymethylcellulose (CMC)",120 % of control
same,T/C,"dose: 1.0 mg/kg/injection, schedule: Q03DX005 (ip), vehicle: other",162 % of control
same,T/C,"dose: 1.0 mg/kg/injection, schedule: Q## X008 (ip), vehicle: saline",150 % of control
same,T/C,"dose: 1.25 mg/kg/injection, schedule: Q01DX001 (ip), vehicle: carboxymethylcellulose (CMC)",119 % of control
same,T/C,"dose: 1.25 mg/kg/injection, schedule: Q01DX017 (ip), vehicle: carboxymethylcellulose (CMC)",89 % of control
same,T/C,"dose: 1.25 mg/kg/injection, schedule: Q02DX009 (ip), vehicle: carboxymethylcellulose (CMC)",103 % of control
same,T/C,"dose: 1.25 mg/kg/injection, schedule: Q04DX005 (ip), vehicle: carboxymethylcellulose (CMC)",110 % of control
same,T/C,"dose: 1.25 mg/kg/injection, schedule: Q08DX003 (ip), vehicle: carboxymethylcellulose (CMC)",106 % of control
same,T/C,"dose: 1.5 mg/kg/injection, schedule: Q01DX009 (ip), vehicle: Klucel (hydroxypropylcellulose) (HPC)",98 % of control
same,T/C,"dose: 1.5 mg/kg/injection, schedule: Q01DX009 (ip), vehicle: saline with Tween-80",114 % of control and 118 % of control
same,T/C,"dose: 1.5 mg/kg/injection, schedule: Q01DX009 (ip), vehicle: saline",112 % of control
same,T/C,"dose: 1.5 mg/kg/injection, schedule: Q01DX Z (ip), vehicle: carboxymethylcellulose (CMC)",108 % of control
same,T/C,"dose: 1.5 mg/kg/injection, schedule: Q01DX Z (ip), vehicle: water",101 % of control
same,T/C,"dose: 1.56 mg/kg/injection, schedule: Q01DX005 (ip), vehicle: saline",90 % of control
same,T/C,"dose: 1.6 mg/kg/injection, schedule: Q01DX009 (ip), vehicle: saline",108 % of control
same,T/C,"dose: 1.8 mg/kg/injection, schedule: Q01DX Z (ip), vehicle: water",152 % of control
same,T/C,"dose: 2.0 mg/kg/injection, schedule: Q01DX001 (sc), vehicle: saline",103 % of control and 108 % of control
same,T/C,"dose: 2.0 mg/kg/injection, schedule: Q01DX006 (iv), vehicle: saline",115 % of control
same,T/C,"dose: 2.0 mg/kg/injection, schedule: Q01DX009 (ip), vehicle: saline",96 % of control and 100 % of control
same,T/C,"dose: 2.0 mg/kg/injection, schedule: Q01DX010 (oral), vehicle: saline",104 % of control
same,T/C,"dose: 2.0 mg/kg/injection, schedule: Q01DX Z (im), vehicle: saline",117 % of control
same,T/C,"dose: 2.0 mg/kg/injection, schedule: Q01DX Z (ip), vehicle: carboxymethylcellulose (CMC)",105 % of control
same,T/C,"dose: 2.0 mg/kg/injection, schedule: Q03DX005 (ip), vehicle: other",155 % of control
same,T/C,"dose: 2.0 mg/kg/injection, schedule: Q## X003 (ip), vehicle: saline",220 % of control
same,T/C,"dose: 2.0 mg/kg/injection, schedule: Q## X008 (ip), vehicle: saline",157 % of control
same,T/C,"dose: 2.0 mg/kg/injection, schedule: Q## X024 (ip), vehicle: saline",155 % of control
same,T/C,"dose: 2.4 mg/kg/injection, schedule: Q01DX009 (ip), vehicle: saline",96 % of control
same,T/C,"dose: 2.5 mg/kg/injection, schedule: Q01DX001 (ip), vehicle: carboxymethylcellulose (CMC)",165 % of control
same,T/C,"dose: 2.5 mg/kg/injection, schedule: Q02DX009 (ip), vehicle: carboxymethylcellulose (CMC)",90 % of control
same,T/C,"dose: 2.5 mg/kg/injection, schedule: Q04DX005 (ip), vehicle: carboxymethylcellulose (CMC)",118 % of control
same,T/C,"dose: 2.7 mg/kg/injection, schedule: Q01DX Z (ip), vehicle: water",161 % of control
same,T/C,"dose: 3.0 mg/kg/injection, schedule: Q01DX001 (ip), vehicle: water",157 % of control
same,T/C,"dose: 3.0 mg/kg/injection, schedule: Q01DX009 (ip), vehicle: saline with Tween-80",110 % of control
same,T/C,"dose: 3.0 mg/kg/injection, schedule: Q01DX Z (ip), vehicle: water",104 % of control
same,T/C,"dose: 3.0 mg/kg/injection, schedule: Q03DX005 (ip), vehicle: other",157 % of control and 170 % of control
same,T/C,"dose: 4.0 mg/kg/injection, schedule: Q01DX001 (ip), vehicle: clinical formulation",159 % of control
same,T/C,"dose: 4.0 mg/kg/injection, schedule: Q01DX001 (sc), vehicle: saline",102 % of control and 107 % of control
same,T/C,"dose: 4.0 mg/kg/injection, schedule: Q01DX006 (iv), vehicle: saline",91 % of control
same,T/C,"dose: 4.0 mg/kg/injection, schedule: Q01DX010 (oral), vehicle: saline",101 % of control
same,T/C,"dose: 4.0 mg/kg/injection, schedule: Q01DX Z (im), vehicle: saline",108 % of control
same,T/C,"dose: 4.0 mg/kg/injection, schedule: Q## X008 (ip), vehicle: saline",170 % of control
same,T/C,"dose: 4.0 mg/kg/injection, schedule: Q## X024 (ip), vehicle: saline",97 % of control
same,T/C,"dose: 5.0 mg/kg/injection, schedule: Q01DX001 (ip), vehicle: water",185 % of control
same,T/C,"dose: 5.0 mg/kg/injection, schedule: Q01DX001 (oral), vehicle: saline",102 % of control and 103 % of control
same,T/C,"dose: 5.0 mg/kg/injection, schedule: Q03DX005 (ip), vehicle: other",162 % of control
same,T/C,"dose: 5.0 mg/kg/injection, schedule: Q08DX003 (ip), vehicle: carboxymethylcellulose (CMC)",121 % of control
same,T/C,"dose: 8.0 mg/kg/injection, schedule: Q## X003 (ip), vehicle: saline",109 % of control
same,T/C,"dose: 8.0 mg/kg/injection, schedule: Q## X008 (ip), vehicle: saline",195 % of control
same,T/C,"dose: 10.0 mg/kg/injection, schedule: Q01DX001 (oral), vehicle: saline",105 % of control
same,T/C,"dose: 16.0 mg/kg/injection, schedule: Q01DX001 (ip), vehicle: saline",102 % of control
same,T/C,"dose: 20.0 mg/kg/injection, schedule: Q01DX001 (oral), vehicle: saline",112 % of control

# Source: PubChem BioAssay AID248 (DTP/NCI, 2004)
